Assay results: patent US7354931B2, “Heterocyclic retinoid compounds” (Roche Palo Alto LLC, priority 2001, dated 2008)

Key:
RAR α = target: T1, RAR α (Homo sapiens, UniProt P10276); experiment: Ligand binding assay, retinoic acid receptor α; conditions: first value of α/β/γ cell
T1 sequence (P10276 1-462): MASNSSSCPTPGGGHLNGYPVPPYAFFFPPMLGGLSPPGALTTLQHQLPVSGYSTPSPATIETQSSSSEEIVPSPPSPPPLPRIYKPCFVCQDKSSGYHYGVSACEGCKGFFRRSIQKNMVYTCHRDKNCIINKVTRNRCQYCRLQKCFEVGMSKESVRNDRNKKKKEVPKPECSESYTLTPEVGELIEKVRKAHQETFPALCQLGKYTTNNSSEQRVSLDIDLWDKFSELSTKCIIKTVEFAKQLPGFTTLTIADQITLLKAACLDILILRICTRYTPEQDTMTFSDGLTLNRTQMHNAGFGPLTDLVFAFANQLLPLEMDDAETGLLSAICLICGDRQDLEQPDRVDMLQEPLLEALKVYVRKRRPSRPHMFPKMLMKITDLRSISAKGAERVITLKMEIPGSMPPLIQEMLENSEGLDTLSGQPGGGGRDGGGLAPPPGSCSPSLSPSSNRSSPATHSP
Text: (§1) The retinoic acid receptor agonist selectivity of a compound of the invention may be determined by using ligand binding assays known to the skilled artisan (Apfel et al., Proc. Natl. Acad. Sci., 1992, 89, 7129; Teng et al., J. Med. Chem., 1997, 40, 2445; Bryce et al., U.S. Pat. No. 5,807,900 which are herein incorporated by reference). Treatment with RAR agonists, particularly RAR γ agonists may promote repair of alveolar matrix and septation, which are in important in treating emphysema. It should be noted that RAR agonists that are not γ selective may be effective in treating emphysema
as §1, with “emphysema” for “emphysema.”, “emphysema.” for “emphysema”

RAR β = target: T2, RAR β (Homo sapiens, UniProt P10826); experiment: Ligand binding assay, retinoic acid receptor β; conditions: second value of α/β/γ cell
T2 sequence (P10826 1-455): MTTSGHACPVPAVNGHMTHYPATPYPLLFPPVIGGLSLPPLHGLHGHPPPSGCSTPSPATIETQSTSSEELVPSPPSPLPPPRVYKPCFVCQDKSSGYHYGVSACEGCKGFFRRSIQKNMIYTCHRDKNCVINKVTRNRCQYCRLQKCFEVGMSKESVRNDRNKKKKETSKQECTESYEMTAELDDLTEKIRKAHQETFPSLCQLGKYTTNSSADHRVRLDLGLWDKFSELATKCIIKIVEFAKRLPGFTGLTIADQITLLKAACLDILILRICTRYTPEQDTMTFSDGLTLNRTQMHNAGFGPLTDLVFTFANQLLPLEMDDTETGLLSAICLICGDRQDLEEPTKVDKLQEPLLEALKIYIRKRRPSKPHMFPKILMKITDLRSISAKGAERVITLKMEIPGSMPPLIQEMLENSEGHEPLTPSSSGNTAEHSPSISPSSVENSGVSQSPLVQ
Text: as §1
as §1, with “emphysema” for “emphysema.”, “emphysema.” for “emphysema”

RAR γ = target: T3, RAR γ (Homo sapiens, UniProt P13631); experiment: Ligand binding assay, retinoic acid receptor γ; conditions: third value of α/β/γ cell
T3 sequence (P13631 1-454): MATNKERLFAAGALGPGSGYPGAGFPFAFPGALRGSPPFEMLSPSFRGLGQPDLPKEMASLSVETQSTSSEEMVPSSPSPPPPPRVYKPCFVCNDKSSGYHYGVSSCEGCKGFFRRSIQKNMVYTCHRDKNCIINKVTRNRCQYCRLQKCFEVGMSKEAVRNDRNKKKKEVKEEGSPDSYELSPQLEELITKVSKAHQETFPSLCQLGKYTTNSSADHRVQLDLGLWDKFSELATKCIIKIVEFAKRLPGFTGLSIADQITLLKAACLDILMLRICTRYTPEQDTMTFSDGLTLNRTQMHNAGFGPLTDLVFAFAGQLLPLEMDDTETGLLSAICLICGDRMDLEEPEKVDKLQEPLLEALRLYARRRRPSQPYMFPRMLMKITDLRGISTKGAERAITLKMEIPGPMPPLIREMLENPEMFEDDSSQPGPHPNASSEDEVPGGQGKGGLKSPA
Text: as §1
as §1, with “emphysema” for “emphysema.”, “emphysema.” for “emphysema”

[1] = test system: rat model of elastase-induced emphysema; experiment: Alveolar repair in rat model of elastase-induced emphysema; type: in vivo, male Sprague Dawley rats; conditions: once per day starting 21 days post elastase injury, relative to elastase+vehicle group
Text: Compounds of the invention may be evaluated for their effects on alveolar repair in the rat model of elastase-induced emphysema (Massaro et al., Nature, 1997, Vol. 3, No. 6: 675; Massaro et al., U.S. Pat. No. 5,998,486). Preferably, animals are divided into treatment groups of approximately eight. Lung inflammation and alveolar damage may be induced in male Sprague Dawley rats by a single instillation of about 2 U/gram body mass of pancreatic elastase (porcine derived, Calbiochem).
Animals may be treated with a compound of the invention formulated Miglyol at convenient oral dosage ranges (preferably, between about 10.0 mg/kg and 0.0001 mg/kg) and will be dosed orally once per day starting 21 days post injury. Control groups are challenged with elastase and 21 days later are treated with vehicle (Miglyol) for 14 days. Animals were sacrificed 24 hours after the last dose by exsanguination under deep anesthesia. Blood was collected at time of exsanguination for analysis.
The lungs are inflated with 10% neutral buffered formalin by intratracheal instillation at a constant rate (1 ml/gram body mass/min). The lung is excised and immersed in fixative for 24 hours prior to processing. Standard methods were used to prepare 5 μm paraffin sections. Sections were stained with Hematoxylin and Eosin. Alveolar measurements were made in four regions of the lung/rat by Computerized Morphometric analysis. The mean value/treatment group may be determined by summing the average area/rat for all eight rats/treatment groups and repair of elastase damage expressed as percentage of repair relative to the elastase+vehicle treated group from the following calculation: […]

Row | SMILES | IC50 (RAR α) [nM] | IC50 (RAR β) [nM] | IC50 (RAR γ) [nM] | melting point [°C] | % Alveolar repair ([1]; dose 1 μg/kg p.o.) [%] | % Alveolar repair ([1]; dose 10 μg/kg p.o.) [%] | % Alveolar repair ([1]; dose 100 μg/kg p.o.) [%]
1 | CCCCCC(/C=C/c1ccc(C(=O)O)cc1)c1ccc2c(c1)N(CC)CCC2(C)C (racemic) [Example 5.6, 4-[3-(1-ethyl4,4-dimethyl-1,2,3,4-tetrahydro-quinolin-7-yl)-oct-1-enyl]-benzoic acid] | 1280 | 1470 | 1000 | – | – | – | –
2 | CCCCCC(/C=C/c1ccc(C(=O)O)cc1)c1ccc2c(c1)NCCC2(C)C (racemic) [Example 5.10, 4-[3-(4,4-dimethyl-1,2,3,4-tetrahydro-quinolin-7-yl)-oct-1-enyl]-benzoic acid] | 5140 | 8270 | 6390 | – | – | – | –
3 | CCCCCC(/C=C/c1ccc(C(=O)O)cc1)c1ccc2c(c1)OCCC2(C)C (racemic) [Example 5.3, 4-[3-(4,4-dimethyl-chroman-7-yl)-oct-1-enyl]-benzoic acid] | 6920 | 2920 | 3870 | – | – | – | –
4 | CCCCCC(COc1ccc(C(=O)O)cc1)c1ccc2c(c1)N(CC)CCC2(C)C (racemic) [Example 5.13, 4-[2-(1-ethyl4,4-dimethyl-1,2,3,4-tetrahydro-quinolin-7-yl)-heptyloxy]-benzoic acid] | 2520 | 3130 | 3600 | – | – | – | –
5 | CCC(/C=C/c1ccc(C(=O)O)cc1)c1ccc2c(c1)N(C)CCC2(C)C (racemic) [Example 5.7, 4-[3-(1,4,4-trimethyl-1,2,3,4-tetrahydro-quinolin-7-yl)-pent-1-enyl]-benzoic acid] | 3390 | 1050 | > 10000 | – | – | – | –
6 | CCCCCC(COc1ccc(C(=O)O)cc1)c1ccc2c(c1)N(C)CCC2(C)C (racemic) [Example 5.12, 4-[2-(1,4,4-trimethyl-1,2,3,4-tetrahydro-quinolin-7-yl)-heptyloxy]-benzoic acid] | 3170 | 4150 | 5440 | – | – | – | –
7 | CCCCCC(/C=C/c1ccc(C(=O)O)cc1)c1ccc2c(c1)SCCC2(C)C (racemic) [Example 5.4, 4-[3-(4,4-dimethyl-thiochroman-7-yl)-oct-1-enyl]-benzoic acid] | 1580 | 1490 | 2330 | – | – | – | –
8 | CCCCCC(COc1ccc(C(=O)O)cc1)c1ccc2c(c1)OCCC2(C)C (racemic) [Example 5.1, 4-[2-(4,4-dimethyl-chroman-7-yl)-heptyloxy]-benzoic acid] | 3920 | 3160 | 3770 | 91.5 to 93.3 | – | – | –
9 | CCCCCC(COc1ccc(C(=O)O)cc1)c1ccc2c(c1)SCCC2(C)C (racemic) [Example 5.2, 4-[2-(4,4-dimethyl-thiochroman-7-yl)-heptyloxy]-benzoic acid] | 2070 | 3010 | 3230 | 123 to 123.5 | – | – | –
10 | CCCCCC(/C=C/c1ccc(C(=O)O)cc1F)c1ccc2c(c1)N(C)CCC2(C)C (racemic) [Example 5.11, 3-fluoro-4-[3-(1,4,4-trimethyl-1,2,3,4-tetrahydro-quinolin-7-yl)-oct-1-enyl]-benzoic acid] | 6290 | 3260 | 4060 | – | – | – | –
11 | CCCCCC(/C=C/c1ccc(C(=O)O)cc1)c1ccc2c(c1)N(C)CCC2(C)C (racemic) [Example 5.5, 4-[3-(1,4,4-trimethyl-1,2,3,4-tetrahydro-quinolin-7-yl)-oct-1-enyl]-benzoic acid] | 1460 | 1940 | 1420 | – | 65 | 54 | 60.9
